Measured values from patent US20230190754A1, “Therapeutic combinations for the treatment of Progressive Fibrosing interstitial lung diseases” (Boehringer Ingelheim International GmbH, priority 2021, published 2023).

Tested on: IPF patients
Assay: Phase II clinical trial in IPF patients: Treatment Emergent Adverse Events (safety/tolerability), up to 13 weeks
Description: The participants were divided into 2 groups by chance (the “active agent group” and the “placebo group”). […] One 12 mg placebo tablet and one 6 mg placebo tablet (both containing no active ingredient, see Table 1) was administered orally to the patients of the second group twice daily (b.i.d.).
The “active agent group” and the “placebo group” were further distributed to two different groups regarding background medication: the “AF-group” (“antifibrotic background medication group”) and the “Non-AF-group” (“no antifibrotic background medication group”). […] The combination of both nintedanib and pirfenidone as background medication was not allowed in the “AF-group”.
The trial was a randomised, double-blind, placebo-controlled parallel group study.

SMILES: [O-][S@+]1CCc2nc(N3CCC(c4ncc(Cl)cn4)CC3)nc(NC3(CO)CCC3)c21 [Comp. of form. III]
- AE: Metabolism and nutrition disorders, patients n (Non-AF+AF total, 18 mg b.i.d.): 4
- AE: Musculoskeletal and connective tissue disorders, patients % (Non-AF+AF total, 18 mg b.i.d.): (5.2) %
- AE: Musculoskeletal and connective tissue disorders, patients n (Non-AF+AF total, 18 mg b.i.d.): 5
- AE: Nasopharyngitis, patients % (Non-AF+AF total, 18 mg b.i.d.): (4.1) %
- AE: Nasopharyngitis, patients n (Non-AF+AF total, 18 mg b.i.d.): 4
- AE: Nausea, patients % (Non-AF+AF total, 18 mg b.i.d.): (3.1) %
- AE: Nausea, patients n (Non-AF+AF total, 18 mg b.i.d.): 3
- AE: Nervous system disorders, patients % (Non-AF+AF total, 18 mg b.i.d.): (13.4) %
- AE: Nervous system disorders, patients n (Non-AF+AF total, 18 mg b.i.d.): 13
- AE: Oedema peripheral, patients % (Non-AF+AF total, 18 mg b.i.d.): (2.1) %
- AE: Oedema peripheral, patients n (Non-AF+AF total, 18 mg b.i.d.): 2
- AE: Pyrexia, patients % (Non-AF+AF total, 18 mg b.i.d.): (2.1) %
- AE: Pyrexia, patients n (Non-AF+AF total, 18 mg b.i.d.): 2
- AE: Respiratory, thoracic and mediastinal disorders, patients % (Non-AF+AF total, 18 mg b.i.d.): (14.4) %
- AE: Respiratory, thoracic and mediastinal disorders, patients n (Non-AF+AF total, 18 mg b.i.d.): 14
- AE: Rhinorrhoea, patients % (Non-AF+AF total, 18 mg b.i.d.): (2.1) %
- AE: Rhinorrhoea, patients n (Non-AF+AF total, 18 mg b.i.d.): 2
- AE: Vomiting, patients % (Non-AF+AF total, 18 mg b.i.d.): (3.1) %
- AE: Vomiting, patients n (Non-AF+AF total, 18 mg b.i.d.): 3
- AE: Weight decreased, patients % (Non-AF+AF total, 18 mg b.i.d.): (3.1) %
- AE: Weight decreased, patients n (Non-AF+AF total, 18 mg b.i.d.): 3
- AEs leading to discontinuation of trial drug, patients % (Non-AF+AF total, 18 mg b.i.d.): (13.4) %
- AEs leading to discontinuation of trial drug, patients n (Non-AF+AF total, 18 mg b.i.d.): 13
- Any AE, patients n (Non-AF+AF total, 18 mg b.i.d.): 67
- Diarrhoea leading to discontinuation of trial treatment, patients % (Non-AF+AF total, 18 mg b.i.d.): (3.1) %
- Diarrhoea leading to discontinuation of trial treatment, patients n (Non-AF+AF total, 18 mg b.i.d.): 3
- Dyspepsia leading to discontinuation of trial treatment, patients % (Non-AF+AF total, 18 mg b.i.d.): (1.0) %
- Dyspepsia leading to discontinuation of trial treatment, patients n (Non-AF+AF total, 18 mg b.i.d.): 1
- Gastrointestinal disorders leading to discontinuation of trial treatment, patients % (Non-AF+AF total, 18 mg b.i.d.): (5.2) %
- Gastrointestinal disorders leading to discontinuation of trial treatment, patients n (Non-AF+AF total, 18 mg b.i.d.): 5
- SAE: COPD, patients % (Non-AF+AF total, 18 mg b.i.d.): (1.0) %
- SAE: COPD, patients n (Non-AF+AF total, 18 mg b.i.d.): 1
- SAE: Cardiac disorders, patients % (Non-AF+AF total, 18 mg b.i.d.): (1.0) %
- SAE: Cardiac disorders, patients n (Non-AF+AF total, 18 mg b.i.d.): 1
- SAE: Cardiac failure congestive, patients % (Non-AF+AF total, 18 mg b.i.d.): (1.0) %
- SAE: Cardiac failure congestive, patients n (Non-AF+AF total, 18 mg b.i.d.): 1
- SAE: Condition aggravated, patients % (Non-AF+AF total, 18 mg b.i.d.): (2.1) %
- SAE: Condition aggravated, patients n (Non-AF+AF total, 18 mg b.i.d.): 2
- SAE: Covid-19 pneumonia, patients % (Non-AF+AF total, 18 mg b.i.d.): (1.0) %
- SAE: Covid-19 pneumonia, patients n (Non-AF+AF total, 18 mg b.i.d.): 1
- SAE: Dyspnoea, patients % (Non-AF+AF total, 18 mg b.i.d.): (1.0) %
- SAE: Dyspnoea, patients n (Non-AF+AF total, 18 mg b.i.d.): 1
- SAE: General disorders and administration side conditions, patients % (Non-AF+AF total, 18 mg b.i.d.): (2.1) %
- SAE: General disorders and administration side conditions, patients n (Non-AF+AF total, 18 mg b.i.d.): 2
- SAE: Infections and Infestations, patients % (Non-AF+AF total, 18 mg b.i.d.): (1.0) %
- SAE: Infections and Infestations, patients n (Non-AF+AF total, 18 mg b.i.d.): 1
- SAE: Lung neoplasm, patients % (Non-AF+AF total, 18 mg b.i.d.): (1.0) %
- SAE: Lung neoplasm, patients n (Non-AF+AF total, 18 mg b.i.d.): 1
- SAE: Neoplasms benign, malignant and unspecified, patients % (Non-AF+AF total, 18 mg b.i.d.): (1.0) %
- SAE: Neoplasms benign, malignant and unspecified, patients n (Non-AF+AF total, 18 mg b.i.d.): 1
- SAE: Nervous system disorders, patients % (Non-AF+AF total, 18 mg b.i.d.): (1.0) %
- SAE: Nervous system disorders, patients n (Non-AF+AF total, 18 mg b.i.d.): 1
- SAE: Peripheral nerve paresis, patients % (Non-AF+AF total, 18 mg b.i.d.): (1.0) %
- SAE: Peripheral nerve paresis, patients n (Non-AF+AF total, 18 mg b.i.d.): 1
- SAE: Respiratory, thoracic and mediastinal disorders, patients % (Non-AF+AF total, 18 mg b.i.d.): (1.0) %
- SAE: Respiratory, thoracic and mediastinal disorders, patients n (Non-AF+AF total, 18 mg b.i.d.): 1
- SAE: Vascular disorders, patients % (Non-AF+AF total, 18 mg b.i.d.): (1.0) %
- SAE: Vascular disorders, patients n (Non-AF+AF total, 18 mg b.i.d.): 1
- SAE: Vasculitis, patients % (Non-AF+AF total, 18 mg b.i.d.): (1.0) %
- SAE: Vasculitis, patients n (Non-AF+AF total, 18 mg b.i.d.): 1
- Serious AEs (patients with ≥1 SAE), patients % (Non-AF+AF total, 18 mg b.i.d.): (6.2) %
- Serious AEs (patients with ≥1 SAE), patients n (Non-AF+AF total, 18 mg b.i.d.): 6
- Severe AEs, patients % (Non-AF+AF total, 18 mg b.i.d.): (4.1) %
- Severe AEs, patients n (Non-AF+AF total, 18 mg b.i.d.): 4
- Vomiting leading to discontinuation of trial treatment, patients % (Non-AF+AF total, 18 mg b.i.d.): (1.0) %
- Vomiting leading to discontinuation of trial treatment, patients n (Non-AF+AF total, 18 mg b.i.d.): 1
- Any AE, patients % (Non-AF+AF total, 18 mg b.i.d., listed as Compound of formula III): (69.1) %
- Any AE, patients % (Non-AF+AF total, 18 mg b.i.d., listed as active agent): 67%
- Abdominal Pain, % (Non-AF, N = 48): (2.1) %
- Asthenia, % (Non-AF, N = 48): (6.3) %
- Bronchitis, % (Non-AF, N = 48): (2.1) %
- Constipation, % (Non-AF, N = 48): (2.1) %
- Cough, % (Non-AF, N = 48): (6.3) %
- Decreased appetite, % (Non-AF, N = 48): (2.1) %
- Diarrhoea, % (Non-AF, N = 48): (16.7) %
- Dizziness, % (Non-AF, N = 48): (2.1) %
- Dyspepsia, % (Non-AF, N = 48): (6.3) %
- Dyspnoea, % (Non-AF, N = 48): (6.3) %
- Fatigue, % (Non-AF, N = 48): (4.2) %
- Flatulence, % (Non-AF, N = 48): (6.3) %
- Gastrointestinal disorders, % (Non-AF, N = 48): (27.1) %
- General Disorders and Administration Side conditions, % (Non-AF, N = 48): (18.8) %
- Headache, % (Non-AF, N = 48): (6.3) %
- Infections and infestations, % (Non-AF, N = 48): (14.6) %
- Investigations, % (Non-AF, N = 48): (10.4) %
- Metabolism and nutrition disorders, % (Non-AF, N = 48): (2.1) %
- Musculoskeletal and connective tissue disorders, % (Non-AF, N = 48): (4.2) %
- Nausea, % (Non-AF, N = 48): (4.2) %
- Nervous system disorders, % (Non-AF, N = 48): (8.3) %
- Oedema peripheral, % (Non-AF, N = 48): (2.1) %
- Pyrexia, % (Non-AF, N = 48): (2.1) %
- Respiratory, thoracic and mediastinal disorders, % (Non-AF, N = 48): (16.7) %
- Rhinorrhoea, % (Non-AF, N = 48): (2.1) %
- Vomiting, % (Non-AF, N = 48): (2.1) %
- Weight decreased, % (Non-AF, N = 48): (4.2) %
- AE resulting in death, patients % (Non-AF-group, 18 mg b.i.d.): (2.1) %
- AE resulting in death, patients n (Non-AF-group, 18 mg b.i.d.): 1
- AE: Abdominal pain, patients % (Non-AF-group, 18 mg b.i.d.): (2.1) %
- AE: Abdominal pain, patients n (Non-AF-group, 18 mg b.i.d.): 1
- AE: Asthenia, patients % (Non-AF-group, 18 mg b.i.d.): (6.3) %
- AE: Asthenia, patients n (Non-AF-group, 18 mg b.i.d.): 3
- AE: Bronchitis, patients % (Non-AF-group, 18 mg b.i.d.): (2.1) %
- AE: Bronchitis, patients n (Non-AF-group, 18 mg b.i.d.): 1
- AE: Constipation, patients % (Non-AF-group, 18 mg b.i.d.): (2.1) %
- AE: Constipation, patients n (Non-AF-group, 18 mg b.i.d.): 1
- AE: Cough, patients % (Non-AF-group, 18 mg b.i.d.): (6.3) %
- AE: Cough, patients n (Non-AF-group, 18 mg b.i.d.): 3
